Test results taken from patent publication US9511120B2, “Use of the angiotensin-(1-9) peptide or derivatives thereof, use of vectors overexpressing the ACE2 enzyme that produces angiotensin-(1-9) for preparing medicaments useful for preventing, reverting, inhibiting and/or reducing hypertension and/or inducing vasodilation” (PONTIFICA UNIVERSIDAD CATÓLICA DE CHILE, priority 2012, dated 2016).

Assays:
rat mesenteric arteries = experiment: Contractility studies in perfused, pressurized mesenteric arteries; settings: co-incubated with angiotensin-(1-9)
Protocol: The change in diameter of rat resistance (mesenteric) arteries was determined, they were then perfused and pressurized under physiological conditions, in response to different substances, according to a methodology previously described (Gonzalez et al. Hypertension 45:853-9, 2005). Briefly, male rats (Sprague Dawley, 150-200 g) were euthanized for dissection of mesenteric vascular territory, avoiding direct manipulation of arterial or venous tissue. Mesenteric small arteries (200-300 micrometers) were isolated, surgically eliminating adventitial tissue under a zoom stereo microscope (Olympus SZ61). The arteries were perfused intraluminally into a thermoregulated bath at controlled pressure and flow, with perfusion solution (modified Krebs, KRB) of the following composition, in mmol/L: NaCl, 130; CaCl2, 2.5; NaHCO3, 25; MgSO4, 1.2; NaH2PO4, 1.2; KCl, 4.7; glucose, 5.5, pH 7.4. Before use, KRB was gassed with a mixture of 95% O2 and 5% CO2. For perfusion, the artery was cannulated with a glass micropipette (outer diameter 164μ), secured with 5-0 silk suture. The arteries were perfused with 10-20 μL/min KRB, so as to achieve transmural pressure of 60 mmHg. After a rest period of 20 minutes, each artery was incubated in the presence of a vasoconstrictor (100 μM phenylephrine) for two minutes and an endothelial NO production agonist (1 μM acetylcholine). […]

angiotensin-(1-9) = settings: administration of the drug; cited from earlier work
[1] = tested on: thoracic aortas of hypertensive rats by angiotensin II infusion; experiment: Angiotensin II infusion model: aortic hypertrophy by morphometry; assay type: in vivo, rat; settings: thoracic aorta, 14 days infusion
Protocol: (§1) Rats were subjected to the model of angiotensin II infusion (Grobe et al.: Am. J. Physiol. 292: H736-42, 2007). The animals were separated randomly into the following experimental groups: controls (Sham or pseudo-operated), infused with angiotensin II (300 ng/kg min), infused with angiotensin II and angiotensin-(1-9) (300 ng/kg min and 602 ng/kg min, respectively), and then infused with angiotensin II, angiotensin-(1-9) and the angiotensin-(1-7) receptor antagonist, A779 (300 ng/kg min, 602 ng/kg min, and 100 ng/kg min, respectively). In all cases the pumps operated at a flow of 0.5 μL/h and were implanted in the right jugular vein through a catheter fitted in an intrascapular subcutaneous pocket under anesthesia with ketamine HCl/xylazine (35 and 7 mg/kg i.p., respectively), for a period of 14 days.
Aortic hypertrophy was determined by morphometry. Sections of the descending aorta of 5 μm thick, which were previously fixed in Bouin (1.3% picric acid, 9.5% formaldehyde and 4.8% acetic acid) for 24 hours, embedded in paraffin and stained with hematoxylin-eosin, were used, to be examined later in a light microscope as described by Igase et al. (Am. J. Physiol. 289:H1013-9, 2005). Briefly, images of the aortas were captured by a video camera (Nikon) fixed to a microscope (Nikon), and projected on a monitor; using the software Nis-Element. Lumen areas (LA) and total areas (TA) were calculated and recorded. The tunica media area (TMA) was obtained from the difference between the TA and LA of the aorta. The tunica media thickness (TMT) was defined as the region delimited by the external elastic lamina (EEL) and internal elastic lamina (IEL).

TGF-β mRNA = experiment: Angiotensin II infusion model: TGF-β mRNA levels in the aortic wall; assay type: in vivo, rat; settings: normalized to 18S rRNA
Protocol: as §1
(§2) The procedure described by Ocaranza et al. (Hypertension 48:572-8, 2006) was followed. Briefly, total RNA was isolated from the aorta using the trizol method and quantified by spectroscopy at 260 nm/280 nm. The cDNA was obtained by reverse transcription from 1.5 μg of total RNA treated with DNAse. […] The band intensity was quantified by densitometry and normalized to the 18S ribosomal RNA band.

[2] = tested on: cardiomyocyte hypertrophy induced by Ang II in vivo; experiment: Angiotensin II infusion model: cardiomyocyte hypertrophy (area and perimeter); parameters: species or system rat; settings: two weeks
Protocol: as §1
The middle portion of the left ventricle (LV) was dehydrated at room temperature for 24 h in Bouin and then embedded in paraffin. Sections of 10-15 μm thick were taken and stained with hematoxylin-eosin, to be examined later in a light microscope in order to observe their general morphological characteristics. Cardiomyocyte size was determined according to Nakamura et al. (Circulation, 98:794-9, 1998). Briefly, images of the cells were captured using a Nikon DS Fi1 camera and projected on a monitor using a software program. The cardiomyocyte area and perimeter were measured and recorded, using the Nis-Element program (Ocaranza et al. J. Hypertens., 28:1054-64, 2010). All measurements were performed by a blinded observer, and at least 80 images of cells per animal, which were randomly selected, were analyzed.

MCP-1 mRNA = experiment: Angiotensin II infusion model: MCP-1 mRNA levels in the aortic wall; assay type: in vivo, rat
Protocol: as §1, §2

collagen I = experiment: Angiotensin II infusion model: collagen I protein levels in the aortic wall by Western blot; assay type: in vivo, rat; settings: aortic wall
Protocol: as §1
For the determination of collagen I and TGFβ-1, 30 μg and 50 μg of total proteins were used, respectively, diluted in SDS reducing buffer (50 mM tris-HCl, pH 7.4, NP-40 10%, NaCl 1M, Na deoxycholate 5%, EDTA 10 mg/mL, SDS 10%, aprotinin 1 mg/mL, leupeptin 0.1 mg/mL, PMSF 10 mM), they were then separated by SDS-PAGE gel electrophoresis 7%, and transferred to nitrocellulose membranes of […] to 300 mA for 1 h. The transfer of proteins was monitored by Ponceau red staining. […]

[3] = tested on: hypertensive rats by administration of angiotensin II; experiment: Hypertension induced by angiotensin II infusion: body mass, cardiac mass, systolic blood pressure; assay type: in vivo, rat
Protocol: as §1
Systolic blood pressure (SBP) was measured by the tail plethysmographic method in the animals. To such end, rats were lightly anesthetized with ethyl ether. The measurement was performed once a week by researchers blind to the treatment (Ocaranza et al. J. Hypertens. 20:413-20, 2002).
The degree of cardiac hypertrophy (CH) was measured by the ratio of the cardiac mass (CM), the body mass (BM) and relative cardiac mass (RCM; [CM/BM]*100) (Ocaranza et al., J. Hypertens. 28:1054-1064, 2010).
Four experimental groups of rats were established as described in Example 1. Group 1 corresponds to rats which were infused with saline (Sham). Group 2 corresponds to rats which were infused with only angiotensin II. Group 3 correspond to rats which were co-infused with angiotensin II and angiotensin-(1-9). And Group 4 corresponds to rats which were co-infused with angiotensin II, angiotensin-(1-9) and A779.

Molecule: COC(=O)[C@@H](N)CCCNC(=N)N[N+](=O)[O-] [L-NAME, reference compound]
- effect of nitric oxide synthase inhibitor on the vasodilator effect of angiotensin-(1-9) (rat mesenteric arteries): decreased the vasodilator effect

Molecule: CCOC(=O)[C@H](CCc1ccccc1)N[C@@H](C)C(=O)N1CCC[C@H]1C(=O)O [enalapril]
- plasma and/or tissue levels of angiotensin-(1-9) (angiotensin-(1-9)): increase

Molecule: Asp-Arg-Val-Tyr-Ile-His-Pro-Phe [angiotensin II, infused to induce hypertension in the model, reference compound]
- ratio of tunica media area (TMA) to LA [1]: increase
- thickness of the tunica media (TMT) [1]: increased significantly
- vascular lumen area (LA) [1]: no change
- increase of TGF-β mRNA in relation to Sham control (TGF-β mRNA): 12.8 times
- cardiomyocyte cell area ([2]; left ventricle): 282±2 μm^2
- cardiomyocyte perimeter ([2]; left ventricle): 66.2±0.3 μm
- increase in cell area as compared to the Sham control group [2]: 37%
- increase in perimeter as compared to the Sham control group [2]: 18%
- MCP-1 mRNA levels (MCP-1 mRNA): no differences
- increase of collagen I as compared to the Sham control group (collagen I): 4.5 times
- SBP 1st week ([3]; 1st week of infusion): 130 ± 4 mmHg
- SBP 2nd week ([3]; 2nd week of infusion): 154 ± 10 mmHg
- Initial SBP ([3]; baseline, tail plethysmography): 121 ± 9 mmHg
- CM ([3]; rats, infusion for 14 days): 899 ± 28 mg
- RCM (MV/MC) ([3]; rats, infusion for 14 days): 348 ± 18
